How the values were obtained:
myofibroblast formation = conditions: Ajmal et al. (2003); cited from earlier work
[1] = in vivo
Description: (§1) However, in some embodiments, however, higher doses of tranexamic acid are used for topical applications to account for tranexamic acid being widely distributed throughout the extracellular and intracellular compartments when given preoperatively.

fibrinolysis = assay: prevention / reversal of fibrinolysis; conditions: one tenth of the doses used in the non-GLP acute porcine study
Description: as §1

Row | time to reach plasma concentrations [1] [min] | SMILES | myofibroblast formation (myofibroblast formation) | reversing fibrinolysis (fibrinolysis)
1 |  | O=S(=O)([O-])CCS.[Na+] [MESNA, sodium 2-mercaptoethane sulfonate] | diminish myofibroblast formation | 
2 | 5 to 15 | NC[C@H]1CC[C@H](C(=O)O)CC1 [tranexamic acid, trans-4-(aminomethyl)cyclohexanecarboxylic acid] |  | effective in reversing fibrinolysis

— patent US12133936B2, “Surgical system and methods of use” (priority 2021, dated 2024)
